Columns and labels:
Type in all cases: functional
[1] = test system: U-251; assay: Cytotoxicity against human U251 cells assessed as growth inhibition after 48 hrs by sulforhodamine B assay; settings: U-251, 48 h
[2] = test system: Malme-3M; assay: Cytotoxicity against human MALME-3M cells assessed as growth inhibition after 48 hrs by sulforhodamine B assay
[3] = test system: HT-29; assay: Cytotoxicity against human HT-29 cells assessed as cell growth at 0.01 uM after 48 hrs by sulforhodamine B assay relative to control; settings: HT-29, 48 h, read-out: Activity
[4] = test system: ACHN; assay: Cytotoxicity against human ACHN cells assessed as growth inhibition after 48 hrs by sulforhodamine B assay
[5] = test system: SF-268; assay: Cytotoxicity against human SF268 cells assessed as cell growth at 10 uM after 48 hrs by sulforhodamine B assay relative to control; settings: SF-268, 48 h, read-out: Activity
[6] = test system: NCI/ADR-RES; assay: Cytotoxicity against human NCI/ADR-RES cells assessed as cell growth at 0.01 uM after 48 hrs by sulforhodamine B assay relative to control; settings: read-out: Activity
[7] = test system: UACC-62; assay: Cytotoxicity against human UACC62 cells assessed as cell growth at 0.01 uM after 48 hrs by sulforhodamine B assay relative to control; settings: UACC-62, 48 h, read-out: Activity
[8] = test system: OVCAR-5; assay: Cytotoxicity against human OVCAR5 cells assessed as cell growth at 1 uM after 48 hrs by sulforhodamine B assay relative to control; settings: OVCAR-5, 48 h, read-out: Activity
[9] = test system: HCT-116; assay: Cytotoxicity against human HCT116 cells assessed as cell growth at 0.01 uM after 48 hrs by sulforhodamine B assay relative to control; settings: HCT-116, 48 h, read-out: Activity
[10] = test system: ACHN; assay: Cytotoxicity against human ACHN cells assessed as cell growth at 10 uM after 48 hrs by sulforhodamine B assay relative to control; settings: read-out: Activity
[11] = test system: SK-MEL-2; assay: Cytotoxicity against human SK-MEL-2 cells assessed as growth inhibition after 48 hrs by sulforhodamine B assay; settings: SK-MEL-2, 48 h
[12] = test system: T47D; assay: Cytotoxicity against human T47D cells assessed as cell growth at 10 uM after 48 hrs by sulforhodamine B assay relative to control; settings: read-out: Activity
[13] = test system: 786-0; assay: Cytotoxicity against human 786-0 cells assessed as cell growth at 10 uM after 48 hrs by sulforhodamine B assay relative to control; settings: 786-0, 48 h, read-out: Activity
[14] = test system: COLO 205; assay: Cytotoxicity against human COLO205 cells assessed as growth inhibition after 48 hrs by sulforhodamine B assay; settings: COLO 205, 48 h
[15] = test system: HL-60(TB); assay: Cytotoxicity against human HL-60(TB) cells assessed as cell growth at 1 uM after 48 hrs by sulforhodamine B assay relative to control; settings: HL-60, 48 h, read-out: Activity
[16] = test system: BT-549; assay: Cytotoxicity against human BT549 cells assessed as cell growth at 10 uM after 48 hrs by sulforhodamine B assay relative to control; settings: BT-549, 48 h, read-out: Activity
[17] = test system: NCI-H226; assay: Cytotoxicity against human NCI-H226 cells assessed as growth inhibition after 48 hrs by sulforhodamine B assay; settings: NCI-H226, 48 h
[18] = test system: OVCAR-5; assay: Cytotoxicity against human OVCAR5 cells assessed as growth inhibition after 48 hrs by sulforhodamine B assay; settings: OVCAR-5, 48 h
[19] = test system: BT-549; assay: Cytotoxicity against human BT549 cells assessed as cell growth at 0.1 uM after 48 hrs by sulforhodamine B assay relative to control; settings: BT-549, 48 h, read-out: Activity
[20] = test system: T47D; assay: Cytotoxicity against human T47D cells assessed as cell growth at 1 uM after 48 hrs by sulforhodamine B assay relative to control; settings: read-out: Activity
[21] = test system: MCF7; assay: Cytotoxicity against human MCF7 cells assessed as cell growth at 0.01 uM after 48 hrs by sulforhodamine B assay relative to control; settings: MCF7, 48 h, read-out: Activity
[22] = test system: K562; assay: Cytotoxicity against human K562 cells assessed as growth inhibition after 48 hrs by sulforhodamine B assay; settings: K562, 48 h
[23] = test system: Malme-3M; assay: Cytotoxicity against human MALME-3M cells assessed as cell growth at 1 uM after 48 hrs by sulforhodamine B assay relative to control; settings: read-out: Activity
[24] = test system: SNB-19; assay: Cytotoxicity against human SNB19 cells assessed as cell growth at 0.01 uM after 48 hrs by sulforhodamine B assay relative to control; settings: SNB-19, 48 h, read-out: Activity
[25] = test system: DU-145; assay: Cytotoxicity against human DU145 cells assessed as cell growth at 0.1 uM after 48 hrs by sulforhodamine B assay relative to control; settings: DU-145, 48 h, read-out: Activity
[26] = test system: TK-10; assay: Cytotoxicity against human TK10 cells assessed as growth inhibition after 48 hrs by sulforhodamine B assay; settings: TK-10, 48 h
[27] = test system: ACHN; assay: Cytotoxicity against human ACHN cells assessed as cell growth at 100 uM after 48 hrs by sulforhodamine B assay relative to control; settings: read-out: Activity
[28] = test system: RPMI-8226; assay: Cytotoxicity against human RPMI8226 cells assessed as cell growth at 0.1 uM after 48 hrs by sulforhodamine B assay relative to control; settings: RPMI-8226, 48 h, read-out: Activity
[29] = test system: NCI-H460; assay: Cytotoxicity against human NCI-H460 cells assessed as cell growth at 0.01 uM after 48 hrs by sulforhodamine B assay relative to control; settings: NCI-H460, 48 h, read-out: Activity
[30] = test system: PC-3; assay: Cytotoxicity against human PC3 cells assessed as cell growth at 10 uM after 48 hrs by sulforhodamine B assay relative to control; settings: PC-3, 48 h, read-out: Activity
[31] = test system: M14; assay: Cytotoxicity against human M14 cells assessed as cell growth at 0.01 uM after 48 hrs by sulforhodamine B assay relative to control; settings: M14, 48 h, read-out: Activity
[32] = test system: MDA-MB-468; assay: Cytotoxicity against human MDA-MB-468 cells assessed as cell growth at 1 uM after 48 hrs by sulforhodamine B assay relative to control; settings: MDA-MB-468, 48 h, read-out: Activity
[33] = test system: SK-MEL-28; assay: Cytotoxicity against human SK-MEL-28 cells assessed as cell growth at 0.1 uM after 48 hrs by sulforhodamine B assay relative to control; settings: SK-MEL-28, 48 h, read-out: Activity
[34] = test system: NCI-H226; assay: Cytotoxicity against human NCI-H226 cells assessed as cell growth at 1 uM after 48 hrs by sulforhodamine B assay relative to control; settings: NCI-H226, 48 h, read-out: Activity
[35] = test system: BT-549; assay: Cytotoxicity against human BT549 cells assessed as cell growth at 1 uM after 48 hrs by sulforhodamine B assay relative to control; settings: BT-549, 48 h, read-out: Activity
[36] = test system: HOP-62; assay: Cytotoxicity against human HOP62 cells assessed as cell growth at 0.01 uM after 48 hrs by sulforhodamine B assay relative to control; settings: HOP-62, 48 h, read-out: Activity

COc1ccc(C(=O)/C=C/c2cc(-c3ccc(OC)c(OC)c3)n[nH]2)cc1OC
GI50 [1]: 1.2 µM | TGI [1]: 2.63 µM | GI50 [2]: 2.59 µM | TGI [2]: 6.21 µM | growth at 0.01 µM [3]: 98% | GI50 [4]: 1.59 µM | TGI [4]: 3.83 µM | growth at 10 µM [5]: -1% | growth at 0.01 µM [6]: 104% | growth at 0.01 µM [7]: 95% | growth at 1 µM [8]: 76% | growth at 0.01 µM [9]: 94% | growth at 10 µM [10]: -54% | GI50 [11]: 2.46 µM | TGI [11]: 5.17 µM | growth at 10 µM [12]: -13% | growth at 10 µM [13]: -32% | GI50 [14]: 1.55 µM | TGI [14]: 3.1 µM | growth at 1 µM [15]: 86% | growth at 10 µM [16]: -87% | GI50 [17]: 1.66 µM | TGI [17]: 4.23 µM | GI50 [18]: 1.76 µM | TGI [18]: 5.24 µM | growth at 0.1 µM [19]: 89% | growth at 1 µM [20]: 60% | growth at 0.01 µM [21]: 85% | GI50 [22]: 0.619 µM | TGI [22]: > 100 µM | growth at 1 µM [23]: 104% | growth at 0.01 µM [24]: 91% | growth at 0.1 µM [25]: 105% | GI50 [26]: 4.96 µM | TGI [26]: 47.7 µM | growth at 100 µM [27]: -60% | growth at 0.1 µM [28]: 91% | growth at 0.01 µM [29]: 102% | growth at 10 µM [30]: 5% | growth at 0.01 µM [31]: 89% | growth at 1 µM [32]: 55% | growth at 0.1 µM [33]: 95% | growth at 1 µM [34]: 77% | growth at 1 µM [35]: 75% | growth at 0.01 µM [36]: 83%
